Results as given in patent US8512757B2, “Micelles for drug delivery” (Agency for Science, Techology and Research, priority 2006, dated 2013).

How the values were obtained:
4T1 cells = assay: Cellular distribution and uptake of DOX by confocal microscopy; assay type: cell-based, mouse; details: DOX 10 mg/L, 4 hours
Experimental: Free DOX (10 mg/L) and DOX-loaded micelles (DOX content: 10 mg/L) in RPMI 1640 medium (without folate) were incubated with 4T1 cells for 4 hours before examination. The cells on the cover glass were thoroughly washed three times with PBS and visualized by CLSM (Olympus FV300, Japan). DOX was excited at 532 nm with emission at 595 nm. The laser power was 10%. All the observations were conducted using the same resolution.

[1] = system: 4T1 mouse breast cancer cells; assay: Cytotoxicity test (MTT); assay type: cell-based; details: 4T1 cells, 48 hours, 37° C.
Experimental: 4T1 mouse breast cancer cells were cultured in RPMI 1640 (without folate) supplemented with 10% FBS, 5% penicillin, 2 mM L-glutamine (Sigma), and incubated at 37° C., 5% CO2. The cells were seeded onto 96-well plates at 10,000 cells per well, and incubated for one day. […] The media in the wells were replaced with 100 μL of the pre-prepared samples. The plates were then returned to the incubator and maintained in 5% CO2, at 37° C. for 48 hours. Fresh growth media and 10 μL aliquots of MTT solution were used to replace the mixture in each well after 48 hours. The plates were then returned to the incubator and maintained in 5% CO2, at 37° C., for a further 3 hours. The growth medium and excess MTT in each well were then removed. DMSO (150 μL) was then added to each well to dissolve the internalised purple formazan crystals. An aliquot of 100 μL was taken from each well and transferred to a fresh 96-well plate. Each sample was tested in eight replicates per plate. Three plates were used, making a total of 24 replicates per sample. The plates were then assayed at 550 nm and 690 nm. The absorbance readings of the formazan crystals were taken to be that at 550 nm subtracted by that at 690 nm. The results were expressed as a percentage of the absorbance of the blank control.

[2] = Biodistribution in mice bearing subcutaneous 4T1 breast tumours; assay type: in vivo; details: 5 mg/kg DOX
Experimental: Female balb/c (body weight: 19-21 g) were subcutaneously implanted with 4T1 cells (10^7 cells per animal). Tumours were allowed to grow for 2 weeks. Free DOX and DOX-loaded micelles were administrated to the animals by tail vein injection at an equivalent DOX dose of 5 mg/kg. At 10 minutes, 30, minutes, 2 hours and 4 hours, blood samples were taken, and the animals were sacrificed. The liver, lung, heart, spleen, kidney and tumour were removed, and kept at −80° C. for future analysis. The organs were weighted and homogenized. DOX distributed in different organs was extracted using chloroform and isopropanol, and analyzed as described by H. S. Yoo, T. G. Park, J. Control. Rel. 2004, 100, 247. Homogenized tissue was added into an acidic hydrolysis buffer containing 2.0 M HCl solution at 80° C. for 10 minutes. The supernatant was collected, and 0.9 mL of the mixture of chloroform and isopropanol (3:1 in volume) was then added. After vortex-mixing, the organic layer was collected by centrifugation at 16,000 rpm for 15 minutes at room temperature. The solution was dried, and re-dissolved in a mobile phase and analyzed by high performance liquid chromatography (HPLC). The recovery rate was 70%, and corrected by an internal standard. The HPLC system consisted of a Waters 2690 separation module and Waters 2475 multi λ fluorescence detector. […] The DOX peak was detected at an excitation wavelength of 480 nm and an emission wavelength of 580 nm.

[3] = tail vein injection, 4T1 tumour

## COc1cccc2c1C(=O)c1c(O)c3c(c(O)c1C2=O)C[C@@](O)(C(=O)CO)C[C@@H]3O[C@H]1C[C@H](N)[C@H](O)[C@H](C)O1.Cl [free DOX, Doxorubicin hydrochloride]
4T1 cells
  cellular distribution of DOX: only accumulated in the nucleus
[1]
  IC50 value of DOX: 3.0 mg/L
[2]; spleen, kidney, heart, liver and lung
  organ distribution of DOX: accumulating uniformly in the heart, lung and liver
[2]; tail vein injection
  t1/2 in the blood: about 30 minutes
[2]; [3]
  maximum DOX level in tumour tissue: 2.9 µg/g
  time at which maximum DOX level in tumour was reached: 30 min
[2]; tail vein injection, 240 minutes
  DOX level in tumour tissue at 240 minutes: 1.0 µg/g
